In patent US10703733B2, “MCL-1 inhibitors” (Gilead Sciences, Inc., priority 2018, dated 2020):
Where two headings read alike, the source gives them in different places.

Columns and labels:
[1] = target: MCL-1/Bim interaction (recombinant human MCL-1 protein, residues 171-327; biotinylated human Bim peptide, residues 51-76) (Homo sapiens (Human), UniProt Q07820); experiment: MCL-1/Bim Binding AlphaLISA Assay; conditions: 0.0625 nM 6xHis-Mcl-1 (171-327), 0.0625 nM biotinylated-Bim peptide
Procedure, shortened: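 AlphaLISA with 0.0625 nM His-tagged MCL-1 (171-327) and 0.0625 nM biotinylated Bim (51-76) in 20 mM Hepes pH 7.5, 150 mM NaCl, 0.002% Brij 35, 1 mM DTT, 0.01% BSA. Compound preincubated 1 h with MCL-1, then Bim 2 h, acceptor beads 1 h, donor beads 1 h; percent inhibition against DMSO and no-protein/no-peptide controls.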

SKBR3 cells = experiment: SKBR3 Cell Viability Assay (CellTiter Glo); assay type: cell-based; conditions: CellTiter Glo luminescence, read-out: MCL-1 CV SKBR3 EC50
Procedure, shortened: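 SKBR3 cells (6,000/well) in McCoy 5A + 10% FBS exposed to serially diluted compound for 72 h at 37° C., 5% CO2. Viability by CellTiter Glo luminescence; % inhibition normalized to DMSO (negative) and 10 μM puromycin (positive).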

Chain of MCL-1/Bim interaction (recombinant human MCL-1 protein, residues 171-327; biotinylated human Bim peptide, residues 51-76) (Q07820 171-327): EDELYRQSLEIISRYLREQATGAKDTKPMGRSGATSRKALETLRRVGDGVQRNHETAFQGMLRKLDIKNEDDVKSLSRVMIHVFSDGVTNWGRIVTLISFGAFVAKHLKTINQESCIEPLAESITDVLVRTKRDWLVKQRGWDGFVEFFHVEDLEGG

IC50 [1]	EC50 (SKBR3 cells; Homo sapiens, SK-BR-3, 72 h)	SMILES	EC50 (SKBR3 cells; 72 hours)
0.072 nM	179 nM	CO[C@H]1/C=C/C[C@H](C)C[S@@](=O)(NC(=O)C2Cc3cccnc3C2)=NC(=O)c2ccc3c(c2)N(C[C@@H]2CC[C@H]21)C[C@@]1(CCCc2cc(Cl)ccc21)CO3 (stereo partly drawn) [Example 412]	
0.5 nM	4560 nM	CO[C@H]1/C=C/CCC[S@@](=O)(NC(=O)CCc2ccc(Cl)cc2)=NC(=O)c2ccc3c(c2)N(C[C@@H]2CC[C@H]21)C[C@@]1(CCCc2cc(Cl)ccc21)CO3 [Example 90]	
0.016 nM	47.2 nM	CO[C@H]1/C=C/C[C@H](C)C[S@@](=O)(NC(=O)N2CC(C#N)C2)=NC(=O)c2ccc3c(c2)N(C[C@@H]2CC[C@H]21)C[C@@]1(CCCc2cc(Cl)ccc21)CO3 [Example 233]	
0.059 nM	41.7 nM	CO[C@H]1/C=C/C[C@H](C)C[S@@](=O)(NC(=O)N[C@H]2C[C@@H]2C(F)(F)F)=NC(=O)c2ccc3c(c2)N(C[C@@H]2CC[C@H]21)C[C@@]1(CCCc2cc(Cl)ccc21)CO3 [Example 243]	
0.016 nM	71.9 nM	COc1nn(C)cc1C(=O)N[S@@]1(=O)=NC(=O)c2ccc3c(c2)N(C[C@@H]2CC[C@H]2[C@@H](OC)CC[C@H](O)[C@H](C)C1)C[C@@]1(CCCc2cc(Cl)ccc21)CO3 [Example 298]	
0.098 nM	90.2 nM	COc1nn(C)cc1C(=O)N[S@@]1(=O)=NC(=O)c2ccc3c(c2)N(C[C@@H]2CC[C@H]2[C@@H](OC)/C=C/[C@H](OCc2ccccn2)[C@H](C)C1)C[C@@]1(CCCc2cc(Cl)ccc21)CO3 [Example 402]	
0.091 nM	302 nM	COC1CCn2cc(C(=O)N[S@@]3(=O)=NC(=O)c4ccc5c(c4)N(C[C@@H]4CC[C@H]4[C@@H](OC)/C=C/C[C@H](C)C3)C[C@@]3(CCCc4cc(Cl)ccc43)CO5)nc2C1 (stereo partly drawn) [Example 302]	
0.057 nM	43.6 nM	COC[C@@H]1Cn2cc(C(=O)N[S@@]3(=O)=NC(=O)c4ccc5c(c4)N(C[C@@H]4CC[C@H]4[C@@H](OC)/C=C/C[C@H](C)C3)C[C@@]3(CCCc4cc(Cl)ccc43)CO5)cc2CO1 [Example 306]	
0.085 nM	158 nM	CO[C@H]1/C=C/C[C@H](C)C[S@@](=O)(NC(=O)[C@H]2C[C@@H](OC)C2)=NC(=O)c2ccc3c(c2)N(C[C@@H]2CC[C@H]21)C[C@@]1(CCCc2cc(Cl)ccc21)CO3 [Example 127]	
0.769 nM	534 nM	COc1nn(C)cc1C(=O)N[S@@]1(=O)=NC(=O)c2ccc3c(c2)N(C[C@@H]2CC[C@H]2[C@@H](OC(=O)CC(C)C)/C=C/C[C@H](C)C1)C[C@@]1(CCCc2cc(Cl)ccc21)CO3 [Example 381]	
0.035 nM	58.8 nM	CO[C@H]1/C=C/C[C@H](C)C[S@@](=O)(NC(=O)N2CC(C(F)F)C2)=NC(=O)c2ccc3c(c2)N(C[C@@H]2CC[C@H]21)C[C@@]1(CCCc2cc(Cl)ccc21)CO3 [Example 351]	
0.234 nM	64.8 nM	CO[C@H]1/C=C/C[C@H](C)C[S@@](=O)(NC(=O)c2ccc3c(c2)COCC3)=NC(=O)c2ccc3c(c2)N(C[C@@H]2CC[C@H]21)C[C@@]1(CCCc2cc(Cl)ccc21)CC3 [Example 157]	
0.1 nM	512 nM	CO[C@H]1/C=C/CCC[S@@](=O)(NC(=O)CCc2cnn(C)n2)=NC(=O)c2ccc3c(c2)N(C[C@@H]2CC[C@H]21)C[C@@]1(CCCc2cc(Cl)ccc21)CO3 [Example 46]	
0.107 nM	43.1 nM	CCc1nn(C)cc1C(=O)N[S@@]1(=O)=NC(=O)c2ccc3c(c2)N(C[C@@H]2CC[C@H]2[C@@H](OC)/C=C/C[C@H](C)C1)C[C@@]1(CCCc2cc(Cl)ccc21)CO3 [Example 187]	
0.2 nM	388 nM	CO[C@H]1/C=C/CCC[S@@](=O)(NC(=O)CCc2cncnc2)=NC(=O)c2ccc3c(c2)N(C[C@@H]2CC[C@H]21)C[C@@]1(CCCc2cc(Cl)ccc21)CO3 [Example 53]	
0.071 nM	43.4 nM	COC[C@H]1C[C@@H](NC(=O)N[S@@]2(=O)=NC(=O)c3ccc4c(c3)N(C[C@@H]3CC[C@H]3[C@@H](OC)/C=C/C[C@H](C)C2)C[C@@]2(CCCc3cc(Cl)ccc32)CO4)C1 [Example 210]	
0.063 nM	101 nM	CCO[C@H]1/C=C/C[C@H](C)C[S@@](=O)(NC(=O)c2cn(C)nc2OC)=NC(=O)c2ccc3c(c2)N(C[C@@H]2CC[C@H]21)C[C@@]1(CCCc2cc(Cl)ccc21)CO3 [Example 367]	

IC50 [1]	EC50 (SKBR3 cells; Homo sapiens, SK-BR-3, 72 h)	SMILES	EC50 (SKBR3 cells; 72 hours)
0.027 nM	47.1 nM	CO[C@H]1/C=C/C[C@H](C)C[S@@](=O)(NC(=O)N2CC3(CCO3)C2)=NC(=O)c2ccc3c(c2)N(C[C@@H]2CC[C@H]21)C[C@@]1(CCCc2cc(Cl)ccc21)CO3 [Example 230]	
0.108 nM		CO[C@H]1/C=C/C[C@H](C)C[S@@](=O)(NC(=O)N[C@H]2C[C@@H]2c2cnn(C)c2)=NC(=O)c2ccc3c(c2)N(C[C@@H]2CC[C@H]21)C[C@@]1(CCCc2cc(Cl)ccc21)CO3 (single isomer, unassigned) [Example 184]	47.2 nM
0.037 nM	147 nM	CO[C@H]1/C=C/C[C@H](C)C[S@@](=O)(NC(=O)c2cc3n(n2)CCOC3)=NC(=O)c2ccc3c(c2)N(C[C@@H]2CC[C@H]21)C[C@@]1(CCCc2cc(Cl)ccc21)CO3 [Example 424]	
0.087 nM	67.9 nM	CO[C@H]1/C=C/C[C@H](C)C[S@@](=O)(NC(=O)c2cn(C)nc2N)=NC(=O)c2ccc3c(c2)N(C[C@@H]2CC[C@H]21)C[C@@]1(CCCc2cc(Cl)ccc21)CO3 [Example 173]	
0.102 nM	162 nM	CO[C@H]1/C=C/C[C@H](C)C[S@@](=O)(NC(=O)N2CC(OC(=O)N3CCOCC3)C2)=NC(=O)c2ccc3c(c2)N(C[C@@H]2CC[C@H]21)C[C@@]1(CCCc2cc(Cl)ccc21)CO3 [Example 387]	
0.062 nM	185 nM	CO[C@H]1/C=C/C[C@H](C)C[S@@](=O)(NC(=O)c2csc(C)n2)=NC(=O)c2ccc3c(c2)N(C[C@@H]2CC[C@H]21)C[C@@]1(CCCc2cc(Cl)ccc21)CO3 [Example 146]	
0.09 nM	124 nM	COCCCn1cc(C(=O)N[S@@]2(=O)=NC(=O)c3ccc4c(c3)N(C[C@@H]3CC[C@H]3[C@@H](OC)/C=C/C[C@H](C)C2)C[C@@]2(CCCc3cc(Cl)ccc32)CO4)cc1COC [Example 338]	
0.076 nM	21.3 nM	CO[C@H]1/C=C/[C@H](OC)[C@H](C)C[S@@](=O)(NC(=O)N[C@H]2CC2C(F)F)=NC(=O)c2ccc3c(c2)N(C[C@@H]2CC[C@H]21)C[C@@]1(CCCc2cc(Cl)ccc21)CO3 (stereo partly drawn) [Example 227]	
0.081 nM	152 nM	CCNC(=O)N[S@@]1(=O)=NC(=O)c2ccc3c(c2)N(C[C@@H]2CC[C@H]2[C@@H](OC)/C=C/C[C@H](C)C1)C[C@@]1(CCCc2cc(Cl)ccc21)CO3 [Example 421]	
0.138 nM	789 nM	COC(=O)N1CC[C@H](C(=O)N[S@@]2(=O)=NC(=O)c3ccc4c(c3)N(C[C@@H]3CC[C@H]3[C@@H](OC)/C=C/C[C@H](C)C2)C[C@@]2(CCCc3cc(Cl)ccc32)CO4)C1 [Example 439]	
0.3 nM	2450 nM	CO[C@H]1/C=C/CCC[S@@](=O)(NC(=O)N2CCS(=O)(=O)CC2)=NC(=O)c2ccc3c(c2)N(C[C@@H]2CC[C@H]21)C[C@@]1(CCCc2cc(Cl)ccc21)CO3 [Example 73]	
0.178 nM	175 nM	CO[C@H]1/C=C/C[C@H](C)C[S@@](=O)(NC(=O)c2cnsc2)=NC(=O)c2ccc3c(c2)N(C[C@@H]2CC[C@H]21)C[C@@]1(CCCc2cc(Cl)ccc21)CO3 [Example 411]	
0.069 nM	78.3 nM	COc1nn(C)cc1C(=O)N[S@@]1(=O)=NC(=O)c2ccc3c(c2)N(C[C@@H]2CC[C@H]2[C@@H](OC)/C=C/C[C@H](C)[C@H]1C)C[C@@]1(CCCc2cc(Cl)ccc21)CO3 [Example 188]	
0.251 nM	345 nM	COc1nc(N2CCOCC2)ncc1C(=O)N[S@@]1(=O)=NC(=O)c2ccc3c(c2)N(C[C@@H]2CC[C@H]2[C@@H](OC)/C=C/C[C@H](C)C1)C[C@@]1(CCCc2cc(Cl)ccc21)CO3 [Example 462]	
0.049 nM	72.2 nM	CO[C@H]1/C=C/C[C@H](C)C[S@@](=O)(NC(=O)N[C@H]2C[C@@H]2CN2CCOCC2)=NC(=O)c2ccc3c(c2)N(C[C@@H]2CC[C@H]21)C[C@@]1(CCCc2cc(Cl)ccc21)CO3 [Example 328]	
0.112 nM	60.5 nM	CO[C@H]1/C=C/C[C@H](C)[C@@H](C)[S@@](=O)(NC(=O)c2cnn(C)c2)=NC(=O)c2ccc3c(c2)N(C[C@@H]2CC[C@H]21)C[C@@]1(CCCc2cc(Cl)ccc21)CO3 [Example 138]	

SMILES	IC50 [1]	EC50 (SKBR3 cells; Homo sapiens, SK-BR-3, 72 h)	EC50 (SKBR3 cells; 72 hours)
COc1nn(C)cc1C(=O)N[S@@]1(=O)=NC(=O)c2ccc3c(c2)N(C[C@@H]2CC[C@H]2[C@@H](OC)/C=C/[C@H](OC(=O)N(C)C)[C@H](C)C1C(=O)N(C)C)C[C@@]1(CCCc2cc(Cl)ccc21)CO3 (stereo partly drawn) [Example 395]	5.27 nM		6180 nM
CCC(=O)N[S@@]1(=O)=NC(=O)c2ccc3c(c2)N(C[C@@H]2CC[C@H]2[C@@H](OC)CCCCC1)C[C@@]1(CCCc2cc(Cl)ccc21)CO3 [Example 12]	1.7 nM		4460 nM
CO[C@H]1/C=C/C[C@H](C)C[S@@](=O)(NC(=O)[C@H]2Cc3ccccc3CO2)=NC(=O)c2ccc3c(c2)N(C[C@@H]2CC[C@H]21)C[C@@]1(CCCc2cc(Cl)ccc21)CO3 (single isomer, unassigned) [Example 143]	0.173 nM	219 nM	
